Earlier results as cited in patent US20090311315A1, “Multimicroparticulate Oral Pharmaceutical Form with Modified Release of Angiotensin II Receptor Antagonists” (FLAMEL TECHNOLOGIES, S.A., priority 2005, published 2009).

Settings: in vivo

Compound | elimination half-life [h]
CCCCC(=O)N(Cc1ccc(-c2ccccc2-c2nnn[nH]2)cc1)[C@H](C(=O)O)C(C)C [valsartan] | 4 to 6
eprosartan cilexitil | 5 to 9
CCOc1nc2cccc(C(=O)O)c2n1Cc1ccc(-c2ccccc2-c2nnn[nH]2)cc1 [cardesartan] | 4 to 9
